These results are taken from US20060204481A1, “Methods of promoting cell viability” (priority 2003, published 2006).

The subject of test [1] is TH-positive neurons and total cells in ventral mesencephalic (VM) tissue cultures. The test is described as follows: Dopamine neuron survival in serum-free ventral mesencephalic tissue cultures (TH-positive and total cell counts). Format: cell-based, rat. Here is the method: In order to examine the effects of TUDCA on apoptosis and the survival of dopamine neurons in VM tissue cultures under serum-free conditions and to determine an appropriate dosage of TUDCA, primary neuronal cultures were prepared from the VM tissue of SD rat embryos and incubated with or without the addition of TUDCA (Calbiochem, La Jolla, Calif., free base, dissolved in 0.15M (where “M” is molar concentration) NaHCO3 buffer). […] Therefore, TUDCA was added to a final concentration of 50 μM to the culture medium when the culture medium was switched to serum-free conditions after two days in vitro. Neural survival and apoptosis were determined by counting TH-positive cells and TUNEL-positive cells in the cultures two or seven days in vitro. A total of three separate series of cell culture experiments were performed.
For each experimental series, pooled VM tissue from 24-32 embryos was incubated in 0.1% trypsin (Sigma, St. Louis, Mo.)/0.05% DNase (Sigma, St. Louis Mo.) at 37 degrees Celsius (° C.) for 20 minutes (min), and mechanically dissociated using a 1 milliliter (ml) Gilson pipette. Following dissociation, the cells were centrifuged at 600 rotation per minute (rpm) for 5 min and the pellet was resuspended in Dulbecco's Modified Eagle's Medium (DMEM) (Gibco, Carlsbad, Calif.). The cell number and viabilities of dissociated cells were assessed with a hemocytometer using trypan blue dye exclusion. The number of 100,000 cells/cm^2 (178,000 cells per well) were plated on to four-well chamber slides (Nunc, Rochester, N.Y.) precoated with […] poly-d-lysine (Sigma, St. Louis Mo.). The viabilities of dissociated cells were over 95%. Cell cultures were incubated for 2 days in DMEM supplemented with 10% fetal calf serum at 37° C. in a 95% air/5% CO^2 humidified atmosphere. After 2 days in vitro, the culture medium was switched to serum-free N2 medium, consisting of DMEM/Ham's F 12(1:1) mixture (Gibco, Carlsbad, Calif.).
At this time point, some cultures were supplemented with TUDCA. […]

Test [2] deals with TUNEL-positive cells in VM tissue cultures. The test is described as follows: TUNEL assay of apoptosis in VM tissue cultures. Format: cell-based, rat. Conditions: 50 μM TUDCA, p<0.01. How it is done:
In order to examine the effects of TUDCA on apoptosis and the survival of dopamine neurons in VM tissue cultures under serum-free conditions and to determine an appropriate dosage of TUDCA, primary neuronal cultures were prepared from the VM tissue of SD rat embryos and incubated with or without the addition of TUDCA (Calbiochem, La Jolla, Calif., free base, dissolved in 0.15M (where “M” is molar concentration) NaHCO3 buffer). […] Therefore, TUDCA was added to a final concentration of 50 μM to the culture medium when the culture medium was switched to serum-free conditions after two days in vitro. Neural survival and apoptosis were determined by counting TH-positive cells and TUNEL-positive cells in the cultures two or seven days in vitro. […]
For each experimental series, pooled VM tissue from 24-32 embryos was incubated in 0.1% trypsin (Sigma, St. Louis, Mo.)/0.05% DNase (Sigma, St. Louis Mo.) at 37 degrees Celsius (° C.) for 20 minutes (min), and mechanically dissociated using a 1 milliliter (ml) Gilson pipette. […] The cell number and viabilities of dissociated cells were assessed with a hemocytometer using trypan blue dye exclusion. […]
For the cell culture experiments, the number of TUNEL-positive cells was assessed at ×400 magnification with the aid of a 400-μm square, reticule grid. […] Average number of TUNEL-positive cells was calculated and represented a value for single animals.

Another test concerns 3-NP-lesioned rat. As to conditions: systemic administration; cited from earlier work.

Turning to `C[C@H](CCC(=O)NCCS(=O)(=O)O)[C@H]1CC[C@H]2[C@@H]3[C@@H](O)C[C@@H]4C[C@H](O)CC[C@]4(C)[C@H]3CC[C@]12C` [TUDCA, tauroursodeoxycholic acid], the “number of TH-positive cells, TUDCA-treated cultures compared with 2DIV cultures” value in test [1] (50 μM TUDCA added at switch to serum-free medium after 2 days in vitro, counted at 7 DIV, p>0.05) was “No difference”. For the same compound, the “cell loss of TH-positive neurons and total cells” value in test [1] (7DIV TUDCA-treated cultures, serum-free, 7 DIV control had only 30% of 2 DIV TH-positive neurons) was “not observed”. For the same compound, in test [1] (VM tissue cultures, serum-free), the “dose dependence of neural protective effect” value is listed as “dose-dependent manner”. The “number of TUNEL-positive cells, 7 DIV control versus 7 DIV TUDCA-treated cultures” value in test [2] is reported as “significantly higher in 7 DIV control cultures”. Also, in the test on 3-NP-lesioned rat, the neurological deficits entry is listed as “ameliorate neurological deficits” and the striatal degeneration result is listed as “reduce striatal degeneration”.
